Assay results taken from BindingDB's records for doi:10.1021/jm9901125 (Sapienza University of Rome, 2000).

Biological target: T1, Gag-Pol polyprotein [588-1027]/[588-1147] (Human immunodeficiency virus 1, UniProt P04585)
T1 construct: 588-1027; 588-1147
Experiment: HIV-1 RT Assay
Conditions: pH 7.8; 37 °C

| Compound | IC50 |
| --- | --- |
| CCOC(=O)c1cccn1S(=O)(=O)c1cc(Cl)ccc1-n1cccc1 [Ethyl 1-{[5-Chloro-2-(1H-pyrrol-1-yl)phenyl]sulfonyl}-1H-pyrrole-2-carboxylate] | > 100000 nM |
| CCOC(=O)c1cc(C(C)O)cn1S(=O)(=O)c1cc(Cl)ccc1N (stereo unspecified) [ethyl 1-[(2-amino-5-chlorobenzene)sulfonyl]-4-(1-hydroxyethyl)-1H-pyrrole-2-carboxylate] | 170 nM |
| CCOC(=O)c1cc(CO)cn1S(=O)(=O)c1cc(Cl)ccc1N [ethyl 1-[(2-amino-5-chlorobenzene)sulfonyl]-4-(hydroxymethyl)-1H-pyrrole-2-carboxylate] | 50 nM |
| CCOC(=O)c1cc(COC)cn1S(=O)(=O)c1cc(Cl)ccc1N [ethyl 1-[(2-amino-5-chlorobenzene)sulfonyl]-4-(methoxymethyl)-1H-pyrrole-2-carboxylate] | 600 nM |
| CCOC(=O)c1cc(COc2ccccc2)cn1S(=O)(=O)c1cc(Cl)ccc1N [ethyl 1-[(2-amino-5-chlorobenzene)sulfonyl]-4-(phenoxymethyl)-1H-pyrrole-2-carboxylate] | 600 nM |
| CCOC(=O)c1cc(CNc2ccccc2)cn1S(=O)(=O)c1cc(Cl)ccc1N [ethyl 1-[(2-amino-5-chlorobenzene)sulfonyl]-4-[(phenylamino)methyl]-1H-pyrrole-2-carboxylate] | 500 nM |
| C=Cc1cc(C(=O)OCC)n(S(=O)(=O)c2cc(Cl)ccc2N)c1 [ethyl 1-[(2-amino-5-chlorobenzene)sulfonyl]-4-ethenyl-1H-pyrrole-2-carboxylate] | 280 nM |
| CCOC(=O)c1cc(C)cn1S(=O)(=O)c1cc(Cl)ccc1N [ethyl 1-[(2-amino-5-chlorobenzene)sulfonyl]-4-methyl-1H-pyrrole-2-carboxylate] | 80 nM |
| CCOC(=O)c1cccn1S(=O)(=O)c1c(N)cccc1Cl [ethyl 1-[(2-amino-6-chlorobenzene)sulfonyl]-1H-pyrrole-2-carboxylate] | > 100000 nM |
| CC(C)OC(=O)c1cc(CO)cn1S(=O)(=O)c1cc(Cl)ccc1N [propan-2-yl 1-[(2-amino-5-chlorobenzene)sulfonyl]-4-(hydroxymethyl)-1H-pyrrole-2-carboxylate] | 110 nM |
| CC(C)OC(=O)c1cc(CNc2ccccc2)cn1S(=O)(=O)c1cc(Cl)ccc1N [propan-2-yl 1-[(2-amino-5-chlorobenzene)sulfonyl]-4-[(phenylamino)methyl]-1H-pyrrole-2-carboxylate] | 300 nM |
